In patent US20220348569A1 (priority 2021, published 2022):
In brackets after ≈: the same amount, converted by molar mass. Several values for one entry are separate records, joined by “and”; a condition that tells them apart may be missing. Identical values can stand only once. Entries after “also recorded” stand apart in the source; their conditions may differ. Like-named read-outs stand apart in the source and are kept apart here.

What was measured:
[1] = pH 7.4
CYP2D6 [2] = biological target: T1, CYP2D6 (Homo sapiens, UniProt P10635)
CYP2C19 = CYP2C19 (Homo sapiens, UniProt P33261)
[3] = system: SARS-CoV-2 full Spike wild-type (Wuhan-Hu-1) mediated cell-to-cell fusion; experiment: cells; format: cell-based
CYP1A2 = CYP1A2 (Homo sapiens, UniProt P05177)
[4] = rat, in vivo
in vivo = details: female, Sprague Dawley, rat
CYP2B6 = CYP2B6 (Homo sapiens, UniProt P20813)
[5] = system: SARS-CoV-2 (US_WA-1/2020); format: cell-based
SARS-CoV pseudovirus [6] = experiment: microbe, parasite or virus in culture; format: cell-based; details: Severe acute respiratory syndrome coronavirus, 293T/ACE2
[7] = biological target: SARS-CoV-2 spike (active trimer) His-tag (Severe acute respiratory syndrome coronavirus 2, UniProt P0DTC2); format: binding
MERS-CoV pseudovirus [8] = experiment: microbe, parasite or virus in culture; format: cell-based; details: Middle East respiratory syndrome-related coronavirus, Huh-7
CYP3A = CYP3A (Homo sapiens, UniProt P08684)
SARS-CoV pseudovirus [9] = experiment: microbe, parasite or virus in culture; format: cell-based; details: Severe acute respiratory syndrome coronavirus, A549-ACE2
CYP2C9 = CYP2C9 (Homo sapiens, UniProt P11712)
CYP2D6 [10] = biological target: T1, CYP2D6; experiment: biochemical
MERS-CoV pseudovirus [11] = experiment: microbe, parasite or virus in culture; format: cell-based; details: Middle East respiratory syndrome-related coronavirus, MRC5
in vitro = details: human
CYP2C8 = CYP2C8 (Homo sapiens, UniProt P10632)
[12] = human, microsomes
SARS-CoV-2 pseudovirus = experiment: microbe, parasite or virus in culture; format: cell-based
[13] = female, Sprague Dawley, iv, 5 mg/kg

CYP2C19, sequence (P33261 whole entry, the tested form may be a part): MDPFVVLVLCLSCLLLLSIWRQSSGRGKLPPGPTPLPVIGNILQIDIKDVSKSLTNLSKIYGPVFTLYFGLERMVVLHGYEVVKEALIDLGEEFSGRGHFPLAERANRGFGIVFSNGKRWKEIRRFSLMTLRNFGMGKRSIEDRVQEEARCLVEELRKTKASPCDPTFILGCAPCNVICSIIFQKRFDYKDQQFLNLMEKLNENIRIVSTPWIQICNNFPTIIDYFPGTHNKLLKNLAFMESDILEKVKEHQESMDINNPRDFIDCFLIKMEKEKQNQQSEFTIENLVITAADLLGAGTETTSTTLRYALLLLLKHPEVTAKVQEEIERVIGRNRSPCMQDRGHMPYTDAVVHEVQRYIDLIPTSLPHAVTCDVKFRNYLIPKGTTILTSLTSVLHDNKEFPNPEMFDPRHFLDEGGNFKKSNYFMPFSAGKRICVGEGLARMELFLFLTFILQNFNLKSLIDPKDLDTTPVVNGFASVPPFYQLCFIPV
CYP2C9, sequence (P11712 whole entry): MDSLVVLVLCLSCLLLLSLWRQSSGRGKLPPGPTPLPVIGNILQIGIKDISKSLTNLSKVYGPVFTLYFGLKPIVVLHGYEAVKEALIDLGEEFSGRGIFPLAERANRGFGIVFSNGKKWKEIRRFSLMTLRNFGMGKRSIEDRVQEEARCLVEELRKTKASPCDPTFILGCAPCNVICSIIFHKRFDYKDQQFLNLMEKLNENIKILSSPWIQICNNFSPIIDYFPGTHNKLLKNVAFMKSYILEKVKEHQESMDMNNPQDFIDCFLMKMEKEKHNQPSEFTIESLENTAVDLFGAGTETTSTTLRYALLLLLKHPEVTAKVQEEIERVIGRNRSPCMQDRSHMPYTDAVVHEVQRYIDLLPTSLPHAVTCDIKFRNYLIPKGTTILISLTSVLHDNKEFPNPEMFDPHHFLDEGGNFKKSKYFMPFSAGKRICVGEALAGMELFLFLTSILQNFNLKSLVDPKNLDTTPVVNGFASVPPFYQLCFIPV
CYP1A2, sequence (P05177 whole entry): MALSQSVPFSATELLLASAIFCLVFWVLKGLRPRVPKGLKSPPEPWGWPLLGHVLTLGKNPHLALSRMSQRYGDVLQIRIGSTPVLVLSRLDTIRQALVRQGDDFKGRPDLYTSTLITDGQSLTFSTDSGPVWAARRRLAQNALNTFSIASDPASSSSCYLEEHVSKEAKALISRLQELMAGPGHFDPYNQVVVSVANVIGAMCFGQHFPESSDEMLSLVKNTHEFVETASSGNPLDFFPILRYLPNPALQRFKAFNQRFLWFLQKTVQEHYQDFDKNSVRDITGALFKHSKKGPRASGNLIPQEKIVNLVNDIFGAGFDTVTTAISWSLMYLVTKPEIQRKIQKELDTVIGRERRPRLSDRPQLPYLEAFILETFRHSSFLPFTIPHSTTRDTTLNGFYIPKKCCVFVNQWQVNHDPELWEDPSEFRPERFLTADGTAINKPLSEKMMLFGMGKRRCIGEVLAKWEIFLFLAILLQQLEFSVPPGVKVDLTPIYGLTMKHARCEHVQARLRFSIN
CYP2B6, sequence (P20813 whole entry): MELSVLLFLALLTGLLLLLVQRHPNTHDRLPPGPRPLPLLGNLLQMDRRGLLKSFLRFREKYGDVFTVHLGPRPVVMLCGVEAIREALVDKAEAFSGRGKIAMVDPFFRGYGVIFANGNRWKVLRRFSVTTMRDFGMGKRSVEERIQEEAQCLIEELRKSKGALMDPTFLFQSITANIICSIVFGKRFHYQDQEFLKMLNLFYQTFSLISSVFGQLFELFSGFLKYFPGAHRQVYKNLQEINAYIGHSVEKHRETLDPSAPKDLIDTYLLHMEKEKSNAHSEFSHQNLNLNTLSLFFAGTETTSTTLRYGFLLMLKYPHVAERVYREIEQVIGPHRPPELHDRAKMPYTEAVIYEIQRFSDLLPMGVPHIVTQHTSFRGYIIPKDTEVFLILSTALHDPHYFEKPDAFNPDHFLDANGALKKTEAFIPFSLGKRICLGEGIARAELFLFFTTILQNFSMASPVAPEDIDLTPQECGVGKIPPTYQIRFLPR
T1 sequence (P10635 whole entry): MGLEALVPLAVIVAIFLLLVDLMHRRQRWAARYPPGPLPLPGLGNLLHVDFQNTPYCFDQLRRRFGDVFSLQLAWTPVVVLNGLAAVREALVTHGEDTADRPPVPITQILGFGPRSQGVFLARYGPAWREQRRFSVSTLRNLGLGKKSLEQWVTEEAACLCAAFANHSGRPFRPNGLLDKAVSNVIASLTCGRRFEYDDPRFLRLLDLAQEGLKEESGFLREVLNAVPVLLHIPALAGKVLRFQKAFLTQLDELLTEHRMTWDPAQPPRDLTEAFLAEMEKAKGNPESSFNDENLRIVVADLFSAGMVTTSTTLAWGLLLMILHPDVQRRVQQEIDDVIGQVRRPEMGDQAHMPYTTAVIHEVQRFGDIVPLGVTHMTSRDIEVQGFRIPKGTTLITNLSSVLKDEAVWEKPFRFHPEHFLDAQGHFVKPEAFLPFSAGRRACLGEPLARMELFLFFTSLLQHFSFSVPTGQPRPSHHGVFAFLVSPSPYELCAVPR
CYP2C8, sequence (P10632 whole entry): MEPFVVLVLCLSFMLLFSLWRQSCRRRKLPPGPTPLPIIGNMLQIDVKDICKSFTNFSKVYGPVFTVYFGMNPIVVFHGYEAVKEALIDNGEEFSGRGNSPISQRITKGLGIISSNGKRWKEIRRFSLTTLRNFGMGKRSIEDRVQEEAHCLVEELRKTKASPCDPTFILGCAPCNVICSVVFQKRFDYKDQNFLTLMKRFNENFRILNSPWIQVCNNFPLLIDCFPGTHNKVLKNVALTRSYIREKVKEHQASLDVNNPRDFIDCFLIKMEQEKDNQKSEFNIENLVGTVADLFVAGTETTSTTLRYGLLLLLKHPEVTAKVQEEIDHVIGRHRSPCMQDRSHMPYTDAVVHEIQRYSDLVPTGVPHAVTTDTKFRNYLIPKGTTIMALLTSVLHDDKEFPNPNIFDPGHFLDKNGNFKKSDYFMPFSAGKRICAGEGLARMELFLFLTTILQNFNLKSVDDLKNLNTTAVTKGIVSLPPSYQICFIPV
CYP3A, sequence (P08684 2-503): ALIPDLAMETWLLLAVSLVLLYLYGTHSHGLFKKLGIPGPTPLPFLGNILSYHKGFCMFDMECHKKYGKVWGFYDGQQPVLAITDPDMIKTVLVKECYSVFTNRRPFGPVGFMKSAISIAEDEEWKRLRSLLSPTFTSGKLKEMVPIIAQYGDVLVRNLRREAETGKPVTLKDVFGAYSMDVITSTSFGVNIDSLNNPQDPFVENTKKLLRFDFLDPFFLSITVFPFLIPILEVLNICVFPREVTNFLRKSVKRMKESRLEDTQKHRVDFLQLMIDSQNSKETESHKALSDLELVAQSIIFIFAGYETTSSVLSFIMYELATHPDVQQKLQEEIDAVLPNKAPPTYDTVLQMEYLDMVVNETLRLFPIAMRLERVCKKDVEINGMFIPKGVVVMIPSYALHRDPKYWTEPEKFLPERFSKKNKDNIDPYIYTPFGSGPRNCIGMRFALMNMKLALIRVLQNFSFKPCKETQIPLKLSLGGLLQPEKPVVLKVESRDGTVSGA

## O=C(O)c1cc(-c2ccc(/C=C3\SC(=S)N(CCc4ccccc4)C3=O)o2)ccc1Cl [Compound 1, (Z)-2-Chloro-5-(5-((4-oxo-3-phenethyl-2-thioxothiazolidin-5-ylidene)methyl)furan-2-yl)benzoic acid]
[1]
  Solubility in Phosphate Buffer, Average: 4.72 µM (≈ 2.22 µg/mL)
  Solubility in Phosphate Buffer, R1: 4.35 µM (≈ 2.04 µg/mL)
CYP2D6 [2]
  CYP inhibition class: low (key: IC50 >10 μM (CYP inhibition low); <10 μM (CYP inhibition moderate); <3 μM (CYP inhibition high))
CYP2D6 [2]; 0.0137 μM
  % of Control Enzyme Activity (n = 1): 95.8%
CYP2D6 [2]; 0.0412 μM
  % of Control Enzyme Activity (n = 1): 98.7%
CYP2D6 [2]; 0.123 μM
  % of Control Enzyme Activity (n = 1): 98.6%
CYP2D6 [2]; 0.370 μM
  % of Control Enzyme Activity (n = 1): 101%
CYP2D6 [2]; 1.11 μM
  % of Control Enzyme Activity (n = 1): 97.0%
CYP2D6 [2]; 3.33 μM
  % of Control Enzyme Activity (n = 1): 84.3%
CYP2D6 [2]; 10 μM
  % of Control Enzyme Activity (n = 1): 59.2%
CYP2C19
  CYP inhibition class: moderate (key: IC50 >10 μM (CYP inhibition low); <10 μM (CYP inhibition moderate); <3 μM (CYP inhibition high))
CYP2C19; 0.0137 μM
  % of Control Enzyme Activity (n = 1): 103%
CYP2C19; 0.0412 μM
  % of Control Enzyme Activity (n = 1): 110%
CYP2C19; 0.123 μM
  % of Control Enzyme Activity (n = 1): 101%
CYP2C19; 0.370 μM
  % of Control Enzyme Activity (n = 1): 102%
CYP2C19; 1.11 μM
  % of Control Enzyme Activity (n = 1): 92.0%
CYP2C19; 3.33 μM
  % of Control Enzyme Activity (n = 1): 70.8%
CYP2C19; 10 μM
  % of Control Enzyme Activity (n = 1): 40.7%
CYP2C19; human, microsomes, pH 7.4
  IC50: 7310 nM
[3]
  inhibition of SARS-CoV-2 mediated cell-to-cell fusion (in words): potently inhibited the cell-to-cell fusion even at the lowest dose
[3]; Severe acute respiratory syndrome coronavirus 2, Jurkat, at 250 nM, read-out: inhibitory activity of SARS-CoV-2 mediated cell-to-cell fusion
  inhibition at 0.25 µM: 62 to 79%
CYP1A2
  CYP inhibition class: moderate (key: IC50 >10 μM (CYP inhibition low); <10 μM (CYP inhibition moderate); <3 μM (CYP inhibition high))
CYP1A2; 0.0137 μM
  % of Control Enzyme Activity (n = 1): 99.2%
CYP1A2; 0.0412 μM
  % of Control Enzyme Activity (n = 1): 96.7%
CYP1A2; 0.123 μM
  % of Control Enzyme Activity (n = 1): 93.8%
CYP1A2; 0.370 μM
  % of Control Enzyme Activity (n = 1): 92.2%
CYP1A2; 1.11 μM
  % of Control Enzyme Activity (n = 1): 89.8%
CYP1A2; 3.33 μM
  % of Control Enzyme Activity (n = 1): 69.5%
CYP1A2; 10 μM
  % of Control Enzyme Activity (n = 1): 41.3%
CYP1A2; human, microsomes, pH 7.4
  IC50: 7400 nM
[4]; [13]
  C0: 7407.25 ng/mL
  CLobs: 0.00013 mg/kg/(ng/mL)/hr
  MRT0-inf_obs: 4.02 h
  Vss_obs: 0.00053 mg/kg/(ng/mL)
[4]; female, Sprague-Dawley
  F %: 20.1%
[4]; female, Sprague-Dawley, po, 10 mg/kg
  MRT0-inf_obs: 14.34 h
[4]; po, 10 mg/kg
  Vz/F_obs: 0.01078 mg/kg/(ng/mL)
other
  melting point: 348 to 350 °C
In vivo; iv, 5 mg/kg
  AUC(0-t): 37500 ng·h/mL
In vivo; po, 10 mg/kg
  AUC(0-t): 12000 ng·h/mL
CYP2B6
  CYP inhibition class: moderate (key: IC50 >10 μM (CYP inhibition low); <10 μM (CYP inhibition moderate); <3 μM (CYP inhibition high))
CYP2B6; 0.0137 μM
  % of Control Enzyme Activity (n = 1): 97.5%
CYP2B6; 0.0412 μM
  % of Control Enzyme Activity (n = 1): 98.1%
CYP2B6; 0.123 μM
  % of Control Enzyme Activity (n = 1): 90.4%
CYP2B6; 0.370 μM
  % of Control Enzyme Activity (n = 1): 94.2%
CYP2B6; 1.11 μM
  % of Control Enzyme Activity (n = 1): 76.9%
CYP2B6; 3.33 μM
  % of Control Enzyme Activity (n = 1): 47.0%
CYP2B6; 10 μM
  % of Control Enzyme Activity (n = 1): 15.2%
CYP2B6; human, microsomes, pH 7.4
  IC50: 3190 nM
[5]
  IC100: 1.25 µM
SARS-CoV pseudovirus [6]
  IC50: 13.8 to 17 nM
[7]
  ka: 1040 M⁻¹ s⁻¹
MERS-CoV pseudovirus [8]
  IC50: 95 to 158 nM
CYP3A
  CYP inhibition class: low (key: IC50 >10 μM (CYP inhibition low); <10 μM (CYP inhibition moderate); <3 μM (CYP inhibition high))
CYP3A; 0.0137 μM
  % of Control Enzyme Activity (n = 1): 96.7% and 96.6%
CYP3A; 0.0412 μM
  % of Control Enzyme Activity (n = 1): 97.0%
CYP3A; 0.123 μM
  % of Control Enzyme Activity (n = 1): 94.5% and 94.8%
CYP3A; 0.370 μM, 0.37 µM
  % of Control Enzyme Activity (n = 1): 95.1% and 96.3%
CYP3A; 1.11 μM
  % of Control Enzyme Activity (n = 1): 95.9% and 94.6%
CYP3A; 3.33 μM
  % of Control Enzyme Activity (n = 1): 88.2% and 82.2%
CYP3A; 10 μM
  % of Control Enzyme Activity (n = 1): 61.6% and 59.9%
SARS-CoV pseudovirus [9]
  IC50: 98 to 157 nM
CYP2C9
  CYP inhibition class: moderate (key: IC50 >10 μM (CYP inhibition low); <10 μM (CYP inhibition moderate); <3 μM (CYP inhibition high))
CYP2C9; 0.0137 μM
  % of Control Enzyme Activity (n = 1): 99.4%
CYP2C9; 0.0412 μM
  % of Control Enzyme Activity (n = 1): 98.2%
CYP2C9; 0.123 μM
  % of Control Enzyme Activity (n = 1): 97.2%
CYP2C9; 0.370 μM
  % of Control Enzyme Activity (n = 1): 95.1%
CYP2C9; 1.11 μM
  % of Control Enzyme Activity (n = 1): 85.1%
CYP2C9; 3.33 μM
  % of Control Enzyme Activity (n = 1): 59.9%
CYP2C9; 10 μM
  % of Control Enzyme Activity (n = 1): 29.8%
CYP2C9; human, microsomes, pH 7.4
  IC50: 5010 nM
CYP2D6 [10]
  IC50: > 10000 nM
MERS-CoV pseudovirus [11]
  IC50: 76.5 to 123 nM
In vitro
  CC50: 37500 ± 1000 nM
CYP2C8
  CYP inhibition class: high (key: IC50 >10 μM (CYP inhibition low); <10 μM (CYP inhibition moderate); <3 μM (CYP inhibition high))
CYP2C8; 0.0137 μM
  % of Control Enzyme Activity (n = 1): 102%
CYP2C8; 0.0412 μM
  % of Control Enzyme Activity (n = 1): 89.0%
CYP2C8; 0.123 μM
  % of Control Enzyme Activity (n = 1): 98.3%
CYP2C8; 1.11 μM
  % of Control Enzyme Activity (n = 1): 76.9%
CYP2C8; 3.33 μM
  % of Control Enzyme Activity (n = 1): 25.3%
CYP2C8; 10 μM
  % of Control Enzyme Activity (n = 1): 3.87%
CYP2C8; human, microsomes, pH 7.4
  IC50: 2080 nM
[12]
  clearance (in words): low-clearance compound
SARS-CoV-2 pseudovirus
  antiviral activity against SARS-CoV-2 pseudovirus (in words): low nanomolar activity; also recorded: excellent antiviral activity; also recorded: low nM IC50
SARS-CoV-2 pseudovirus; Severe acute respiratory syndrome-related coronavirus, read-out: IC50s against SARS-CoV-2 pseudovirus over the cell lines
  IC50: 32.3 to 63.4 nM
